Experimental data: patent publication US20240166589A1, “METHOD FOR PRODUCING FORM-II TYPE REDUCED COENZYME Q10 CRYSTAL OR CRYSTALLINE SOLID OF SAME, AND CRYSTALLIZING APPARATUS” (KANEKA CORPORATION, priority 2021, published 2024)

Key:
[1] = Oxidation stability (relative percentage of QH) after open storage in a constant temperature bath, HPLC; assay type: physicochemical; conditions: open system, 1 month, relative to initial reduced coenzyme Q10 content as 100; for Relative percentage of QH (25° C., 1M): 25° C. and RH 60%; for Relative percentage of QH (40° C., 1M): 40° C. and RH 75%
Method: The oxidation stability of the reduced coenzyme Q10 crystals obtained in Examples was evaluated by the following method.
The reduced coenzyme Q10 crystals obtained in Examples were stored in an open system for one month in a constant temperature bath set at 40° C. and RH (relative humidity) of 75% and at 25° C. and RH of 60% and then subjected to high-performance liquid chromatography to calculate the content ratio of reduced coenzyme Q10 (QH) and oxidized coenzyme Q10.
The oxidation stability of reduced coenzyme Q10 crystal was calculated as a relative percentage of QH by the following formula based on the relative value with the content of reduced coenzyme Q10 for the initial reduced coenzyme Q10 crystal before storage in a constant temperature bath, i.e., the content of reduced coenzyme Q10 when measured using the crystals obtained in Examples immediately after obtaining the crystals, as 100.
Relative percentage of QH (%)=Content of reduced coenzyme Q10 after storage/Content of initial reduced coenzyme Q10×100
Conditions for the high performance liquid chromatography, by which the reduced coenzyme Q10 concentration and the oxidized coenzyme Q10 concentration were measured, are shown below.
• Column: SYMMETRY C18 (manufactured by Waters); 250 mm (length), 4.6 mm (inner diameter) • Mobile phase: C2H5OH:CH3OH=4:3 (v:v) • Detection wavelength: 210 nm • Flow rate: 1 ml/min

[2] = reported in Patent Literature 4; cited from earlier work
[3] = Saturation concentration in an alcohol; assay type: physicochemical

SMILES | Relative percentage of QH (25° C., 1M) [1] [%] | Relative percentage of QH (40° C., 1M) [1] [%] | stability compared with reduced coenzyme Q10 Form I crystal [2] | saturation concentration compared with Form I crystal [3]
COc1c(O)c(C)c(C/C=C(\C)CC/C=C(\C)CC/C=C(\C)CC/C=C(\C)CC/C=C(\C)CC/C=C(\C)CC/C=C(\C)CC/C=C(\C)CC/C=C(\C)CCC=C(C)C)c(O)c1OC [Example 1, reduced coenzyme Q10] | 91.8 | 88.1 |  | 
COc1c(O)c(C)c(C/C=C(\C)CC/C=C(\C)CC/C=C(\C)CC/C=C(\C)CC/C=C(\C)CC/C=C(\C)CC/C=C(\C)CC/C=C(\C)CC/C=C(\C)CCC=C(C)C)c(O)c1OC [Example 2, reduced coenzyme Q10] | 85.1 | 81.4 |  | 
COc1c(O)c(C)c(C/C=C(\C)CC/C=C(\C)CC/C=C(\C)CC/C=C(\C)CC/C=C(\C)CC/C=C(\C)CC/C=C(\C)CC/C=C(\C)CC/C=C(\C)CCC=C(C)C)c(O)c1OC [Example 3, reduced coenzyme Q10] | 89.4 | 87.3 |  | 
COc1c(O)c(C)c(C/C=C(\C)CC/C=C(\C)CC/C=C(\C)CC/C=C(\C)CC/C=C(\C)CC/C=C(\C)CC/C=C(\C)CC/C=C(\C)CC/C=C(\C)CCC=C(C)C)c(O)c1OC [Example 4, reduced coenzyme Q10] | 92.2 | 90.1 |  | 
COc1c(O)c(C)c(C/C=C(\C)CC/C=C(\C)CC/C=C(\C)CC/C=C(\C)CC/C=C(\C)CC/C=C(\C)CC/C=C(\C)CC/C=C(\C)CC/C=C(\C)CCC=C(C)C)c(O)c1OC [reduced coenzyme Q10 Form II crystal, reduced coenzyme Q10] |  |  | much more stable | lower than the saturation concentration of a Form I crystal
